Data taken from patent US4112076A, “Epi-daunomycin and epi-adriamycin compounds and method of use” (priority 1975, dated 1978).

What was measured:
Ascites Sarcoma 180 = Ascites Sarcoma 180 in Swiss CD1 mice, i.p.; assay type: in vivo, mouse (Swiss CD1); settings: i.p. one day after inoculation
Procedure: In Table 5 the activity of 3'-4'-epi-6'-hydroxyadriamycin on Ascites Sarcoma 180 in mice is reported. The test was carried out on groups of 10 mice (Swiss CD1). The compound under examination was administered intraperitoneally in varying doses to the test animals one day after intraperitoneal inoculation with 1×10^6 tumor cells/mouse.
The average survival time is given as percentage of the survival time of untreated animals, which is arbitrarily designated as 100%. The number of long term survivors (LTS) is also reported.

[1] = tested on: experimental mouse tumors; assay: Experimental mouse tumors (overall); assay type: in vivo; settings: mouse, in vivo
Procedure: The test was carried out on groups of 10 mice (Swiss CD1). The compound under examination was administered intraperitoneally in varying doses to the test animals one day after intraperitoneal inoculation with 1×10^6 tumor cells/mouse.
The above compound was tested in comparison with adriamycin in several in vitro systems and experimental mouse tumors.

L 1210 leukemia = L 1210 leukemia bearing BDF mice, single i.p. treatment on first day; assay type: in vivo, mouse (BDF); settings: for T/C %: single i.p. day 1
Description: Inbread BDF mice were intraperitoneally inoculated with 1×10^5 leukemia cells/mouse and then treated with 3'-4'-epi-6'-hydroxydaunomycin:Single treatment i.p. on the first day.

COc1cccc2c1C(=O)c1c(O)c3c(c(O)c1C2=O)C[C@@](O)(C(=O)CO)C[C@@H]3O[C@H]1C[C@@H](N)[C@@H](O)[C@H](CO)O1 [3'-4'-epi-6'-hydroxyadriamycin, 3',4'-epi-6'-hydroxy-adriamycin]
LTS (long term survivors) (Ascites Sarcoma 180; 3 ng/Kg (so in the source)): 1/10 | T/C % (average survival time, % of untreated) (Ascites Sarcoma 180; 3 ng/Kg (so in the source)): 123% | LTS (long term survivors) (Ascites Sarcoma 180; 4.5 ng/Kg (so in the source)): 2/10 | T/C % (average survival time, % of untreated) (Ascites Sarcoma 180; 4.5 ng/Kg (so in the source)): 226% | T/C % (average survival time, % of untreated) (Ascites Sarcoma 180; 6.7 ng/Kg (so in the source)): 138% | T/C % (average survival time, % of untreated) (Ascites Sarcoma 180; 10.5 ng/Kg (so in the source)): 138% | activity in experimental tumors [1]: active in experimental tumors

COc1cccc2c1C(=O)c1c(O)c3c(c(O)c1C2=O)C[C@@](O)(C(C)=O)C[C@@H]3O[C@H]1C[C@@H](N)[C@@H](O)[C@H](CO)O1 [3'-4'-epi-6'-hydroxydaunomycin, 3',4'-epi-6'-hydroxy-daunomycin]
T/C % (L 1210 leukemia; 7.5 ng/Kg (so in the source)): 150% | T/C % (L 1210 leukemia; 11.5 ng/Kg (so in the source)): 150% | T/C % (L 1210 leukemia; 17.25 ng/Kg (so in the source)): 150% | in vivo activity (L 1210 leukemia; Table 4): significant in vivo activity
